Experimental data as given in patent US20030159159A1, “Human nerve growth factor exon 1 and exon 3 promoters” (priority 1997, published 2003).

What was measured:
[1] = system: human nerve growth factor exon 1 promoter KS (pNE1KS) in UC11 cells; experiment: Luciferase assay, UC11 stable cell lines with pNE1KS (human NGF exon 1 promoter KS); format: cell-based; settings: serum deprivation 48-56 hours, 18 hr treatment: serum 10% horse serum, PMA 1 μM, calcitriol 10 nM, mean ± SEM, 6 cell lines in triplicate, read-out: Fold induction over vehicle controls without serum (luciferase), UC11 Human Exon 1 KS
Description: (§1) DNA for the human nerve growth factor exon 1 clones was originally identified by PCR screening a human P1 genomic library (clone 1226-G9, Genome Systems). A ˜14,000 bp fragment containing exon 1 was cloned into a pBS SK+ vector to yield the plasmid identified as pBSEx1. Two overlapping fragments were isolated from the insert in pBSEx1 and subcloned into a pGL3neo vector. The largest construct containing human nerve growth factor exon 1 is 2846 bp and is identified as pNE1KS. The second subclone from pBSEx1, identified as pNE1KE, contains the same 5′ end as pNE1KS and is truncated on the 3′ end in exon 1, resulting in an insert that is 2234 bp. pNE1KS and pNE1KE were transfected into mouse L929 cells and human UC 11 cells to generate the data in Table 1. […]
(§2) Cells were plated at 5,000 cells/well in 96 well dishes in serum containing media described above. […] Cells were treated with 1 μM PMA, 10 nM calcitriol or 10% horse serum and luciferase activity was determined 18 hours later using a Promega kit (catalog #E1500). […] Luciferase activity was detected in a MicroLumat LB 96 P luminometer (Wallac Inc, Gaithersburg, Md.) for 10 seconds following automatic injection of 100 μl 470 μM luciferin.

[2] = system: human nerve growth factor exon 1 promoter KS (pNE1KS) in L929 cells; experiment: Luciferase assay, L929 stable cell lines with pNE1KS (human NGF exon 1 promoter KS); format: cell-based; settings: serum deprivation 48-56 hours, 18 hr treatment: serum 10% horse serum, PMA 1 μM, calcitriol 10 nM, mean ± SEM, 6 cell lines in duplicate, read-out: Fold induction over vehicle controls without serum (luciferase), L929 Mouse Exon 1 KS
Description: as §1, §2

[3] = system: human nerve growth factor exon 1 promoter KE (pNE1KE) in UC11 cells; experiment: Luciferase assay, UC11 stable cell lines with pNE1KE (human NGF exon 1 promoter KE); format: cell-based; settings: serum deprivation 48-56 hours, 18 hr treatment: serum 10% horse serum, PMA 1 μM, calcitriol 10 nM, mean ± SEM, 6 cell lines in triplicate, read-out: Fold induction over vehicle controls without serum (luciferase), UC11 Human Exon 1 KE
Description: as §1, §2

[4] = system: human nerve growth factor exon 3 promoter (pGL2Ex3) in L929 cells; experiment: Luciferase assay, L929 stable cell line with pGL2Ex3 (human NGF exon 3 promoter); format: cell-based; settings: serum deprivation 48-56 hours, 18 hr treatment: serum 10% horse serum, PMA 1 μM, calcitriol 10 nM, mean ± SEM, 1 cell line n = 11-17, read-out: Fold induction over vehicle controls without serum (luciferase), L929 Mouse Exon 3
Description: (§3) DNA for the human nerve growth factor exon 3 clones was originally identified by PCR screening a human P1 genomic library (clone 0095-B8, Genome Systems). A ˜6600 bp fragment containing exon 3 was cloned into a pBS SK+ vector to yield the plasmid identified as pBSEx3. A 4329 bp fragment was isolated from the insert in pBSEx3 and subcloned into a pGL2 enhancer vector (Promega) and a pGL3 basic vector (Promega) to yield clones identified as pGL2Ex3 and pGL3Ex3, respectively. The pGL2Ex3 was transfected into mouse L929 cells and the pGL3Ex3 vector was transfected into human UC11 cells to generate the data in Table 1.
L929 mouse fibroblast cells (ATCC, Rockville, Md.) were grown in Dulbecco's modified Eagle's medium (DMEM) containing 10% horse serum, penicillin (50 μg/ml), streptomycin (50 μg/ml), neomycin (100 μg/ml), and glutamine (1 mM). Cells were maintained at 37° C. in 5% CO2, fed every 3-4 days and passaged once per week. […]
as §2

[5] = system: human nerve growth factor exon 1 promoter KE (pNE1KE) in L929 cells; experiment: Luciferase assay, L929 stable cell lines with pNE1KE (human NGF exon 1 promoter KE); format: cell-based; settings: serum deprivation 48-56 hours, 18 hr treatment: serum 10% horse serum, PMA 1 μM, calcitriol 10 nM, mean ± SEM, 6 cell lines in duplicate, read-out: Fold induction over vehicle controls without serum (luciferase), L929 Mouse Exon 1 KE
Description: as §1, §2

[6] = system: human nerve growth factor exon 3 promoter (pGL3Ex3) in UC11 cells; experiment: Luciferase assay, UC11 stable cell line with pGL3Ex3 (human NGF exon 3 promoter); format: cell-based; settings: serum deprivation 48-56 hours, 18 hr treatment: serum 10% horse serum, PMA 1 μM, calcitriol 10 nM, mean ± SEM, 1 cell line n = 11-17, read-out: Fold induction over vehicle controls without serum (luciferase), UC11 Human Exon 3
Description: as §3
UC11 human astrocytoma cells (Liwnicz, et. al. 1986) were grown in RPMI 1640 containing 10% fetal bovine serum, 20 mM HEPES, penicillin (50 μg/ml), streptomycin (50 μg/ml), neomycin (100 μg/ml), and glutamine (1 mM). Cells were maintained at 37° C. in 5% CO2, fed every 3-4 days and passaged once per week. […]
as §2

[7] = system: wild type cells; experiment: G418 concentration curve on wild type cells; format: cell-based; settings: in 13 days
Description: Since geneticin (G418) resistance would be used as a selection tool, a G418 concentration curve was done and it was determined that 600 μg/ml was the minimum concentration G418 necessary to kill all the wild type cells in 13 days.

[8] = system: ROS 17/2.8 osteoblastic cells; settings: cited from earlier work
[9] = system: primary glial cells; settings: cited from earlier work
[10] = system: mouse L929 fibroblasts; settings: cited from earlier work

## C=C1/C(=C\C=C2/CCC[C@]3(C)[C@@H]([C@H](C)CCCC(C)(C)O)CC[C@@H]23)C[C@@H](O)C[C@@H]1O [CALCITRIOL, calcitriol]
[1]
  fold induction at 0.01 µM: 0.86 ± 0.03
[2]
  fold induction at 0.01 µM: 0.67
[3]
  fold induction at 0.01 µM: 1.01 ± 0.23
[4]
  fold induction at 0.01 µM: 0.73
[5]
  fold induction at 0.01 µM: 0.71
[6]
  fold induction at 0.01 µM: 0.98

## CN[C@@H]1[C@@H](O)[C@@H](O[C@@H]2[C@@H](O)[C@H](O[C@H]3O[C@H]([C@@H](C)O)[C@@H](O)[C@H](O)[C@H]3N)[C@@H](N)C[C@H]2N)OC[C@]1(C)O [G418, geneticin]
[7]
  minimum concentration G418 necessary to kill all the wild type cells: 600 µg/mL

## CCCCCCCCCCCCCC(=O)O[C@@H]1[C@@H](C)[C@@]2(O)[C@@H](C=C(CO)C[C@]3(O)C(=O)C(C)=C[C@@H]23)[C@@H]2C(C)(C)[C@]12OC(C)=O [PMA, phorbol 12-myristate 13-acetate]
[8]
  effect on NGF expression: suppresses expression
[9]
  effect on synthesis of NGF: enhances the synthesis of NGF
[10]
  effect on synthesis of NGF: enhances the synthesis of NGF
